Experimental findings from patent US20060217359A1, “Therapeutic procedures” (priority 2003, published 2006) are described below.

The nature of data set [1]: Cytotoxicity assay (LDH release), WI-L2. In kind it is cell-based. The following applies: human. As to the method:
(§1) Cytotoxicity assays. WI-L2 human B-lymphocyte line, HAAE-1 human abdominal aortic endothelial line, MH—S murine alveolar macrophage line, and J774A.1 murine tissue macrophage line were obtained from the ATCC. Human aortic endothelial cells (HAEC) and human vascular smooth muscle cells (VSMS) were obtained from Cambrex Bio Science. Jurkat E6-1T-lymphocytes were kindly provided by Dr. J. Kaye (The Scripps Research Institute). Cells were cultured in ATCC-recommended media with 10% fetal calf serum. Cells were incubated in a controlled atmosphere at 37° C., with 5 or 7% CO2. For lactate dehydrogenase (LDH) release assays, adherent cells were harvested either by addition of 0.05% trypsin/EDTA or by scraping. The cells obtained were seeded onto 96-well microtiter plates (25,000 cells/well) and allowed to recover for 24-48 h. […] Cytotoxicity was then determined by measuring lactate dehydrogenase (LDH) release from cells in culture. […] 100% Cytotoxicity was defined as the maximum amount of LDH released by dead cells as shown by trypan blue exclusion, or the highest amount of LDH detected upon lysis of cells by 0.9% Triton X-100. The IC50 values were determined by comparison of the raw duplicate data for concentration versus cytotoxicity (%) to non-linear regression analysis (Hill plot) using Graphpad v3.0 software for Macintosh. […]
(In general: LDH leaks from cells whose membrane has failed.)

Data set [2] is described as follows: Cytotoxicity assay (LDH release), HAEC. In kind it is cell-based. To be noted: human, 0-100 μM. As to the method:
as §1

A further data set deals with LDL / apoB-100 (Homo sapiens, UniProt P04114). As to the kind of experiment: Circular dichroism of LDL secondary structure. In kind it is biochemical. To be noted: LDL 100 μg/ml, compound 10 μM, PBS pH 7.4, 37° C., up to 48 h; for random coil of LDL after incubation: native LDL 27±2%; for α helical structure of LDL after incubation (loss of secondary structure): native LDL ~40±2%.

Data set [3] in a line: Cytotoxicity assay (LDH release), Jurkat. In kind it is cell-based. To be noted: human. As to the method: as §1
A short description of data set [4]: Cytotoxicity assay (LDH release), VSMC. In kind it is cell-based. The following applies: human, 0-100 μM. As to the method:
as §1

The nature of data set [5]: Cytotoxicity assay (LDH release), J774A.1. In kind it is cell-based, murine. To be noted: mouse, J774A.1 cells, 0-100 μM. As to the method:
as §1

A short description of data set [6]: Decrease of extractable 5a in stored plasma. The following applies: stored human plasma, preliminary investigations. In kind it is in vitro ADME. The source says: The combined organic fractions were evaporated in vacuo.
A short description of data set [7]: Cytotoxicity assay (LDH release), MH-S. The following applies: mouse, MH-S cells, 0-100 μM. In kind it is cell-based, murine. As to the method:
as §1

LDL / apoB-100, sequence (P04114 28-4563): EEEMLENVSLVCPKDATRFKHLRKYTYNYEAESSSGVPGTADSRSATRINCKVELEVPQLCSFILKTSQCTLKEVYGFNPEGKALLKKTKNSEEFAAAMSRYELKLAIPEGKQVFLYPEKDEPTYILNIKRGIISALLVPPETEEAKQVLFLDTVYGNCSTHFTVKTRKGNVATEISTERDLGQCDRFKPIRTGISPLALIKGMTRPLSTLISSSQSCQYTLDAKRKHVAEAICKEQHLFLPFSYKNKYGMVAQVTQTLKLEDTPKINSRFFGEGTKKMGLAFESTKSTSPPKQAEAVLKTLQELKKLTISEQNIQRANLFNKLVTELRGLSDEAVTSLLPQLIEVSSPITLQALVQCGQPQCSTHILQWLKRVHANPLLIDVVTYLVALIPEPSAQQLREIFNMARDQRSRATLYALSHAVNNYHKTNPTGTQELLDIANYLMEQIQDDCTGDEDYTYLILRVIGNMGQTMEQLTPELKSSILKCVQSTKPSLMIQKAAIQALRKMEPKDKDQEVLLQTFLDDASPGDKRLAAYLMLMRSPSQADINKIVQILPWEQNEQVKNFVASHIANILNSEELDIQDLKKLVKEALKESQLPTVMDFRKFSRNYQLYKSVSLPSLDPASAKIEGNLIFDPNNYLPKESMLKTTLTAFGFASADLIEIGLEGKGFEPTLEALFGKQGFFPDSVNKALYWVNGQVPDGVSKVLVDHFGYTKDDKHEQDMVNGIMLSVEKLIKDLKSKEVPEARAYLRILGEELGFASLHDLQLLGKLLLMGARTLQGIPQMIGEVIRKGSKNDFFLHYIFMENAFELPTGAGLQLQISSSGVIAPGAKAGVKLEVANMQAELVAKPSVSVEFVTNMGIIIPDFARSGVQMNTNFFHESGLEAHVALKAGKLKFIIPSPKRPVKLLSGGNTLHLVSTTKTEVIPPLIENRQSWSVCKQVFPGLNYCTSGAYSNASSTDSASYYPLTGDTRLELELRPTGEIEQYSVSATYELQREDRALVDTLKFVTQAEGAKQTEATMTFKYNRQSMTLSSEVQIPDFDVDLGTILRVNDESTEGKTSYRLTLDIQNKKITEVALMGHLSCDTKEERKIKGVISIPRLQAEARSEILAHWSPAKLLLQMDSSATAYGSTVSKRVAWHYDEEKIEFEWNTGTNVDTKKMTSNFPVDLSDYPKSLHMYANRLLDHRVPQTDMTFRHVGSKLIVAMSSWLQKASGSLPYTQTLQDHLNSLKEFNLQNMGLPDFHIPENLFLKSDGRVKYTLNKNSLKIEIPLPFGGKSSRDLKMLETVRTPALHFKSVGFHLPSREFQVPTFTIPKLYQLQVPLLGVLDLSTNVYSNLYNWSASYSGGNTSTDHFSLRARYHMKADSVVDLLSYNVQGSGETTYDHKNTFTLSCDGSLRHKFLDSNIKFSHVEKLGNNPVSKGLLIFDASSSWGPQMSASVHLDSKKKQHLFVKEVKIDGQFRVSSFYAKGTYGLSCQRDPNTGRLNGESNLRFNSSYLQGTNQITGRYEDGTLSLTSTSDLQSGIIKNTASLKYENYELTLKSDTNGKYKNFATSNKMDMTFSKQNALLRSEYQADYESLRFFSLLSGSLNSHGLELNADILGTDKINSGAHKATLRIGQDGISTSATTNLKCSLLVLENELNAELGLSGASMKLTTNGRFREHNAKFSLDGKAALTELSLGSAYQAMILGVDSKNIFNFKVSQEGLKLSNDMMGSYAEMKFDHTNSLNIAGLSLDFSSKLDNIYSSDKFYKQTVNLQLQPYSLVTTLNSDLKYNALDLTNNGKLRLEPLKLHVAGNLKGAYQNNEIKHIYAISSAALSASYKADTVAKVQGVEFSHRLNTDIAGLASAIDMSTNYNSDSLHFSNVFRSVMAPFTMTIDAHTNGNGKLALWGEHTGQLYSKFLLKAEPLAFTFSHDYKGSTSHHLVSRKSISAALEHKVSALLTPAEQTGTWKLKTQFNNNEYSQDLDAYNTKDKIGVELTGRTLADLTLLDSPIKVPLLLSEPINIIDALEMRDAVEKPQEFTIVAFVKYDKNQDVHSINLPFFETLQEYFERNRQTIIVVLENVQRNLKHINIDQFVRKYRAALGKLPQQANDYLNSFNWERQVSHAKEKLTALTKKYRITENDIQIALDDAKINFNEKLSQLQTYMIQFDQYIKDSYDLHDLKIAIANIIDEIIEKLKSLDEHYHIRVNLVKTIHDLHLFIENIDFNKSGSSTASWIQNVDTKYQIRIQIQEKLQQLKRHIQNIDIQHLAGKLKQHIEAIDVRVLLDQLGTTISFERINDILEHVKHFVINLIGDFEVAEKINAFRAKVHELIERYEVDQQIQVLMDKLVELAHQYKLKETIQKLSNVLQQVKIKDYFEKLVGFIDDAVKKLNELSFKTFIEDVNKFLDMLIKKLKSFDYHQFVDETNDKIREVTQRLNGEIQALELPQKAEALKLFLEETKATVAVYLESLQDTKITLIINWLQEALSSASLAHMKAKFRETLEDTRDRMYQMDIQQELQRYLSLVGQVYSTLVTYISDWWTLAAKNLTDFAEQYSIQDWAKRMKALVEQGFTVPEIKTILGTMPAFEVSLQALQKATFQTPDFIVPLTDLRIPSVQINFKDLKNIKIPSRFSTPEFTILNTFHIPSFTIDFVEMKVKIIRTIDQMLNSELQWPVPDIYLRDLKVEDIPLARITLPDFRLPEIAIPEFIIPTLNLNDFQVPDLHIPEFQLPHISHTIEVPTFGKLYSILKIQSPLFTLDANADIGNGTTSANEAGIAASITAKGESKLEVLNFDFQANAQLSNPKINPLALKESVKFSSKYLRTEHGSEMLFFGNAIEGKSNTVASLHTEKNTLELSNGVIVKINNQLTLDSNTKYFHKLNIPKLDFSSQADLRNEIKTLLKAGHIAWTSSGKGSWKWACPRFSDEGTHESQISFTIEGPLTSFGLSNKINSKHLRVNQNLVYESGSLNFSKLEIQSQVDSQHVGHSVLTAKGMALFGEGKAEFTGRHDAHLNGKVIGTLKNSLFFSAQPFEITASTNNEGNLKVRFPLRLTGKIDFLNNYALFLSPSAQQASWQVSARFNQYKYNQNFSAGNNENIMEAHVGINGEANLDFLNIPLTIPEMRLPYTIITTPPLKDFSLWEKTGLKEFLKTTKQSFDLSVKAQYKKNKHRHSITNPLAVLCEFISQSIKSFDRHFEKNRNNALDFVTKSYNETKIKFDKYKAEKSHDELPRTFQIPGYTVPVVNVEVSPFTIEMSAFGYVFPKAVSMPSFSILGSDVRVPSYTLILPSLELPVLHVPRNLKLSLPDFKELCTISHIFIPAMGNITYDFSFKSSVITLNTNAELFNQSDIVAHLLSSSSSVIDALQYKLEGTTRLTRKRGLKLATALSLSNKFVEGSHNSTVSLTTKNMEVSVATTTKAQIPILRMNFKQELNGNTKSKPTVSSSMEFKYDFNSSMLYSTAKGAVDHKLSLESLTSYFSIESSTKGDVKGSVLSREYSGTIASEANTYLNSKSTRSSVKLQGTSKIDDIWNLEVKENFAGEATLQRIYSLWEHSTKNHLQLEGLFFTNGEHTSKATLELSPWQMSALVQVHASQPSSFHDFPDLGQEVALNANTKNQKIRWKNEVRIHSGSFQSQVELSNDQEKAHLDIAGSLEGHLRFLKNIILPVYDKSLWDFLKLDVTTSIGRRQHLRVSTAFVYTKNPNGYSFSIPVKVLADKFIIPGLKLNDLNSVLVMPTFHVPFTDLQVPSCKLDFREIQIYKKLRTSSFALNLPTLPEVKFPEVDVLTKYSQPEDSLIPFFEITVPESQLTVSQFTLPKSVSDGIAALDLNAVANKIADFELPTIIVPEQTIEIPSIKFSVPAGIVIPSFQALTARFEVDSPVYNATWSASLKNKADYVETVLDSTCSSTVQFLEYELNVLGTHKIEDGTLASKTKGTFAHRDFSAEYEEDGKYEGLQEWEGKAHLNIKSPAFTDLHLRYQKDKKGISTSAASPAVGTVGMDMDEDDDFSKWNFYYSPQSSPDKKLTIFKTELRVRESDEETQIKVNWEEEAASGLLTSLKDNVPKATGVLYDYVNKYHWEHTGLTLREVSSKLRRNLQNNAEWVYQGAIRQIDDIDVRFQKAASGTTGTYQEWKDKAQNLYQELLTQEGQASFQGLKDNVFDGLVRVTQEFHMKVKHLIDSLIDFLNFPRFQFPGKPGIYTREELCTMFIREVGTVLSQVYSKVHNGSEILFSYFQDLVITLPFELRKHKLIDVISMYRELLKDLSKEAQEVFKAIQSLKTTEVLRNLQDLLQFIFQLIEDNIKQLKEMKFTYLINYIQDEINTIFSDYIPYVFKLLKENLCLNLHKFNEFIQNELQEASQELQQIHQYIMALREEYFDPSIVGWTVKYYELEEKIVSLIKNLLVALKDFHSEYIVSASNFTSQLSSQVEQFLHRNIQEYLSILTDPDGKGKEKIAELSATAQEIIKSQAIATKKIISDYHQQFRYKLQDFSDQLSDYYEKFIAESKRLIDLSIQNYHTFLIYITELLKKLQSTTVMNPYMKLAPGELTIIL
Method for LDL / apoB-100: Circular dichroism. […] Spectra were recorded in the peptidic range (200-260 nm). To increase the signal-to-noise ratio, multiple spectra (three) were averaged for each measurement.

The IC50 is the concentration at which inhibition is half-maximal. As for `CC(C)CCC[C@@H](C)[C@H]1CCC2C(CC=O)C([C@@]3(C)CC[C@H](O)CC3=O)CC[C@@]21C` (stereo partly drawn) [4a, 3β-Hydroxy-5-oxo-5,6-secocholestan-6-al], the IC50 at 18 h is 10.9 ± 1.6 µM in data set [1], 24.6 ± 3.2 µM in data set [2] (human aortic endothelial cells (HAEC)), 15.5 ± 1.7 µM in data set [3] and 21.9 ± 2.2 µM in data set [4] (vascular smooth muscle cells (VSMC)). Besides, on LDL / apoB-100, the “random coil of LDL after incubation” value is on record as roughly 39±2%. Further, the “α helical structure of LDL after incubation (loss of secondary structure)” value on LDL / apoB-100 is reported as roughly 23±5%.

In the case of `CC(C)CCC[C@@H](C)[C@H]1CCC2C3C(CC[C@@]21C)[C@@]1(C)CC[C@H](O)C[C@@]1(O)[C@@H]3C=O` (stereo partly drawn) [5a, 3β-Hydroxy-5β-hydroxy-B-norcholestane-6β-carboxaldehyde], the IC50 at 18 h in data set [5] is 26.1 ± 2.8 µM; in data set [1] (WIL2 cells, 18 h, 0-100 μM, read-out: IC50 (cytotoxicity, LDH release)) it was 17.7 ± 2.3 µM; in data set [2] (HAEC cells), 18.2 ± 1.9 µM; in data set [7], 13.6 ± 1.1 µM; in data set [3] (Jurkat E6.1 cells, 18 h, 0-100 μM, read-out: IC50 (cytotoxicity, LDH release)), 12.6 ± 1.9 µM; in data set [4] (VSMC cells) it was 29.8 ± 2.8 µM. On LDL / apoB-100, the “random coil of LDL after incubation” value is reported as 32±4%. The “α helical structure of LDL after incubation (loss of secondary structure)” value at LDL / apoB-100 is reported as roughly 20±2%. Also, in data set [6], the “decrease of the amount that can be extracted from plasma” value is listed as “about 5 % per day”.
